Measurements published in paper PMC8287724, “Reducing Auditory Nerve Excitability by Acute Antagonism of Ca^2+-Permeable AMPA Receptors” (Frontiers in Synaptic Neuroscience, 2021).

Assays:
[1] = molecular target: T1, hERG potassium channel (Kv 11.1) (Homo sapiens, UniProt Q12809); test: Radioligand binding assay, hERG potassium channel; settings: antagonist 1 μM, read-out: Mean% inhibition (N = 2) of radioligand binding
T1 construct: Eurofins Scientific, Inc
Method: (§1) Binding assays were conducted to evaluate the affinity of test compounds IEM-1460 and IEM-1925 (Eurofins Scientific, Inc.) for 15 targets: the human alpha-1 adrenergic (A1) receptor, histaminergic (H)-2 and−3 receptors, and muscarinic acetylcholine receptors-1 to−5 in transfected CHO cells by radioligand binding. The neuronal α4β2 and neuronal α7 cholinergic acetylcholine receptors were tested in transfected SH-SY5Y cells. The histaminergic-1 and−4 receptors were tested in transfected HEK-293 cells. Ion channel testing for AMPA and N-methyl-D-aspartate (NMDA) was performed in cells from the rat cerebral cortex. […] Non-specific binding was determined in the presence of 1 μM of DCPX. […] The filters were dried and then counted for radioactivity in a scintillation counter (Topcount, Packard) using a scintillation cocktail (Microscint 0, Packard). The results are expressed as a percent inhibition of the control radioligand specific binding: 100-[(measured specific binding)/(control specific binding) × 100]. […]
(§2) We tested the metabolic stability of the compounds with in vitro liver microsome stability assays (Table 1, right). […] We evaluated the compounds for potential toxicity with assays that test for inhibition of off-target ion channels and receptors. […]

[2] = tested on: NMDA glutamate; test: Radioligand binding assay, NMDA receptor (rat cerebral cortex); settings: antagonist 1 μM
Method: as §1, §2

[3] = molecular target: T2, A1 adenosine GPCR (Homo sapiens, UniProt P30542); test: Radioligand binding assay, A1 receptor (transfected CHO cells); settings: antagonist 1 μM
T2 construct: host or cells: CHO cells
Method: as §1, §2

[4] = molecular target: T3, H1 histamine GPCR (Homo sapiens, UniProt P35367); test: Radioligand binding assay, H1 receptor (transfected HEK-293 cells); settings: antagonist 1 μM
T3 construct: host or cells: HEK-293 cells
Method: as §1, §2

[5] = molecular target: T4, H2 histamine GPCR (Homo sapiens, UniProt P25021); test: Radioligand binding assay, H2 receptor (transfected CHO cells); settings: antagonist 1 μM
T4 construct: host or cells: CHO cells
Method: as §1, §2

[6] = molecular target: T5, H3 histamine GPCR (Homo sapiens, UniProt Q9Y5N1); test: Radioligand binding assay, H3 receptor (transfected CHO cells); settings: antagonist 1 μM
T5 construct: host or cells: CHO cells
Method: as §1, §2

[7] = molecular target: T6, M1 acetylcholine GPCR (Homo sapiens, UniProt P11229); test: Radioligand binding assay, M1 receptor (transfected CHO cells); settings: antagonist 1 μM
T6 construct: host or cells: CHO cells
Method: as §1, §2

[8] = molecular target: T7, M4 acetylcholine GPCR (Homo sapiens, UniProt P08173); test: Radioligand binding assay, M4 receptor (transfected CHO cells); settings: antagonist 1 μM
T7 construct: host or cells: CHO cells
Method: as §1, §2

[9] = In vitro microsomal stability assay, human; assay type: in vitro ADME; settings: pH 7.4; human liver microsomes, 1 μM compound, 37°C; read-out: Half-life (min) Mean (N = 2)
Method: (§3) The stability of IEM-1460 in the presence of guinea pig liver microsomes (BioIVT, PN: X008070) or IEM-1925 in the presence of human (BioIVT, PN: M00101), mouse, or guinea pig liver microsomes was evaluated (Paraza Pharma, Inc., Montreal, Quebec, Canada). Both IEM-1925 and IEM-1460 were incubated with microsomes at 37°C for a total of 45 min. Working solutions were prepared in 100 mM potassium phosphate buffer and the final reaction was performed at pH 7.4 in 100 mM potassium phosphate buffer containing 0.5 mg/mL liver microsomal protein. Phase I metabolism was assessed by adding NADPH to a final concentration of 1 mM and collecting samples at time points 0, 5, 15, 30, and 45 min. All collected samples were quenched 1:1 with ice-cold stop solution (1 μM labetalol and 1 μM glyburide in acetonitrile) and centrifuged to remove precipitated protein. […] Samples were analyzed by LC-MS/MS using a Thermo Vanquish UPLC and a Thermo Quantis triple quadrupole mass spectrometer. […] Reference compounds were also assessed to ensure accuracy and precision of experimental protocol: imipramine and verapamil for human liver microsomes, diphenhydramine and verapamil for mouse liver microsomes, and warfarin and verapamil for guinea pig liver microsomes. […] Half-life was determined from a plot of the natural logarithm of the peak area ratio (remaining compound peak area/internal standard peak area) against time. […]

[10] = In vitro microsomal stability assay, mouse; assay type: in vitro ADME; settings: pH 7.4; mouse liver microsomes, 1 μM compound, 37°C; read-out: Half-life (min) Mean (N = 2)
Method: as §3

T4 sequence (P25021 whole entry): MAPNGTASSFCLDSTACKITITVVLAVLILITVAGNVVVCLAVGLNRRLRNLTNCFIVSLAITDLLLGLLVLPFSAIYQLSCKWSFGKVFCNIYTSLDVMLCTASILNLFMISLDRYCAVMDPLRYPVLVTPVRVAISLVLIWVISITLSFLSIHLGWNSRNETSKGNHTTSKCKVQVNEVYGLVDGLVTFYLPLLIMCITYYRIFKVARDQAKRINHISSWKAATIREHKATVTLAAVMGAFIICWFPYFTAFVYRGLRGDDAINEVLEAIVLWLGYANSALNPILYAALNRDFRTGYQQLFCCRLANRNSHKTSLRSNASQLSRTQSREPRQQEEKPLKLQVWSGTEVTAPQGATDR
T5 sequence (Q9Y5N1 whole entry): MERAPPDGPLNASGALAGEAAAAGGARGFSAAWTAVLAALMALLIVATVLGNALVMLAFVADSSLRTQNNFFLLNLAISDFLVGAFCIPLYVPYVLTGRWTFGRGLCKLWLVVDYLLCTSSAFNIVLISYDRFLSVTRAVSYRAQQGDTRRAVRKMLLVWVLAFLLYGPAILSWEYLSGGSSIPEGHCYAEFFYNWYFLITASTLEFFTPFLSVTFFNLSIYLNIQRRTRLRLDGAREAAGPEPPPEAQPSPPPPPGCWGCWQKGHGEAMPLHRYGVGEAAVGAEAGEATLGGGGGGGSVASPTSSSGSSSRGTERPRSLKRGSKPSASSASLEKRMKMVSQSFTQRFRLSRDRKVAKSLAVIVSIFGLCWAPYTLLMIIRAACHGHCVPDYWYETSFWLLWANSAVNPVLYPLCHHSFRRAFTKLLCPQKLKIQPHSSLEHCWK
T2 sequence (P30542 whole entry): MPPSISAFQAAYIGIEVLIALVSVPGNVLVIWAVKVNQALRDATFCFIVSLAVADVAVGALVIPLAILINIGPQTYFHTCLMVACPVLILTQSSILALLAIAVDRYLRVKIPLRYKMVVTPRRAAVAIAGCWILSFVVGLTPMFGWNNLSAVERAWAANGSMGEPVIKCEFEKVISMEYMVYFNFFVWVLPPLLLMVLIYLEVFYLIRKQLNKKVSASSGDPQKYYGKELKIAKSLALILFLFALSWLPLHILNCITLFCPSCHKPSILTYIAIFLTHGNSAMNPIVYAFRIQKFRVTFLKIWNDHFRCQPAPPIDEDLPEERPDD
T6 sequence (P11229 whole entry): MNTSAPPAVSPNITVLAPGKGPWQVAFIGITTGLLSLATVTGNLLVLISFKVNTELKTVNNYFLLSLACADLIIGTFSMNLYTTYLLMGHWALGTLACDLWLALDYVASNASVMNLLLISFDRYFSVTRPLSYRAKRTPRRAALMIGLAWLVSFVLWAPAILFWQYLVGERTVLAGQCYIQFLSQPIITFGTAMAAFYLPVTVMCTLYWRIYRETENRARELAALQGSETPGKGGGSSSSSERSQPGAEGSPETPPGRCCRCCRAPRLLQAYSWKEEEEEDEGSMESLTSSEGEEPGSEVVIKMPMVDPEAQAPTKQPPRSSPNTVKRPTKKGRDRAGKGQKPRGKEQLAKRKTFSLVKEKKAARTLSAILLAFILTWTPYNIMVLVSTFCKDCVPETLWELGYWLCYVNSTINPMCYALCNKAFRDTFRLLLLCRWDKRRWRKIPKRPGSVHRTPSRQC
T3 sequence (P35367 whole entry): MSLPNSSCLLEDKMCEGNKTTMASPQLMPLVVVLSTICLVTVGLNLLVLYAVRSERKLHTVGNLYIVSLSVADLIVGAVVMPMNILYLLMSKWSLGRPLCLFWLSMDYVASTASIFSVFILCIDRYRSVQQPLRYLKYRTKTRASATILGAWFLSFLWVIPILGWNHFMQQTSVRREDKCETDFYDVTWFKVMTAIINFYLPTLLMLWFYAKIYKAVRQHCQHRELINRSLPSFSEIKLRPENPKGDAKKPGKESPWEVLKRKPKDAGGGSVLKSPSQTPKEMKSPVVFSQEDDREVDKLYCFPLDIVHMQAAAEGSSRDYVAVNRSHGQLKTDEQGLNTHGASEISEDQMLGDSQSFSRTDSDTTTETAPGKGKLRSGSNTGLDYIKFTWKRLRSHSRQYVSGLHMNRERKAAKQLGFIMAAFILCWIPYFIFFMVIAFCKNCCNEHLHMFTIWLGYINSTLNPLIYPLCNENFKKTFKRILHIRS
T7 sequence (P08173 whole entry): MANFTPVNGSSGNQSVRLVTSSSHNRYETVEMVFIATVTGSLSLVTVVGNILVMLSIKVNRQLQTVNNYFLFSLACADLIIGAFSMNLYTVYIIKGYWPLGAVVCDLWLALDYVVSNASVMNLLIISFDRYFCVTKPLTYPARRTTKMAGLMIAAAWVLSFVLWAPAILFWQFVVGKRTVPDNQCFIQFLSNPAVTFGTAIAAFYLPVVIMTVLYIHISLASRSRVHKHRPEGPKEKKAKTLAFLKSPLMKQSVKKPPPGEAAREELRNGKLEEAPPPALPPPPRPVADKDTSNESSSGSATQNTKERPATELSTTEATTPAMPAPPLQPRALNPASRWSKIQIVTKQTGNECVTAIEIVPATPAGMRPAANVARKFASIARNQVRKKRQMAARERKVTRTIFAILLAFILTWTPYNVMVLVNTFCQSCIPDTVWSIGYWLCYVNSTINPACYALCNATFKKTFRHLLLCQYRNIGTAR
T1 sequence (Q12809 whole entry): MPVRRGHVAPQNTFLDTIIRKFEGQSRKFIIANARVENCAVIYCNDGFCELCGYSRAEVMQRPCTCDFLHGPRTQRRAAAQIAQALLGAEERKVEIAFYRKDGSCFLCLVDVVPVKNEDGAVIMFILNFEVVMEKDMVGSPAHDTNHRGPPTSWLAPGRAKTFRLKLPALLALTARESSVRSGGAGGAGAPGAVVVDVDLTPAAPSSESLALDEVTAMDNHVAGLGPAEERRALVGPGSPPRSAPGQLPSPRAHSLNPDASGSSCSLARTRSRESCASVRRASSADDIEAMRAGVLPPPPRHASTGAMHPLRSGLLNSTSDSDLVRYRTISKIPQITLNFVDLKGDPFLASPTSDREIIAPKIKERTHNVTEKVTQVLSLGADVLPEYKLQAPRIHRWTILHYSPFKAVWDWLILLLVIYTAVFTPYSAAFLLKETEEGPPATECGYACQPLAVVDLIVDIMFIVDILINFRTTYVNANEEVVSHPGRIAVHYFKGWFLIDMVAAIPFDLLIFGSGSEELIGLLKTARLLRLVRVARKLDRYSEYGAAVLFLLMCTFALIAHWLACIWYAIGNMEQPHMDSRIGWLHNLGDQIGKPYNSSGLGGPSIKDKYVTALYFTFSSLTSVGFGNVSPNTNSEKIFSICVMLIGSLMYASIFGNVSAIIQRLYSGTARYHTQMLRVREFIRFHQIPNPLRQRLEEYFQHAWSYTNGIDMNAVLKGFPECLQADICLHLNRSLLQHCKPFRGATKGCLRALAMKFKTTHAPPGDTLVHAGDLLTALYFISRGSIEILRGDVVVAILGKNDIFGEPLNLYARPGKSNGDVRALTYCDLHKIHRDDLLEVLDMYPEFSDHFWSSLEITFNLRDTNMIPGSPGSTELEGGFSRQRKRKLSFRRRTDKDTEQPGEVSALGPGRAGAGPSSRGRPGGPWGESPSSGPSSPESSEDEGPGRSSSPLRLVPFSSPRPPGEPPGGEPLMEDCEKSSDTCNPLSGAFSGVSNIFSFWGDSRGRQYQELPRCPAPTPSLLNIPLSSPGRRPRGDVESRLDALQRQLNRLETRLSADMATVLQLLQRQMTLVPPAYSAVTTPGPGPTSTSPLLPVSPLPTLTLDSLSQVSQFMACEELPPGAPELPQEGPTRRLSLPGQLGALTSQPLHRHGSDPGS

## C[N+](C)(C)CCCCCNCC12CC3CC(CC(C3)C1)C2 [IEM-1460]
[1]
  inhibition at 1 μM: < 5%
[2]
  Mean% inhibition (N = 2) of radioligand binding: <1%
[3]
  Mean% inhibition (N = 2) of radioligand binding: <1%
[4]
  Mean% inhibition (N = 2) of radioligand binding: <1%
[5]
  Mean% inhibition (N = 2) of radioligand binding: <1%
[6]
  Mean% inhibition (N = 2) of radioligand binding: <1%
[7]
  Mean% inhibition (N = 2) of radioligand binding: <1%
[8]
  Mean% inhibition (N = 2) of radioligand binding: 37%
[9]
  half-life at 1 μM: > 300 min
[10]
  half-life at 1 μM: > 300 min

## NCCCCCNC1(c2ccccc2)CCCCC1 [IEM-1925]
[1]
  inhibition at 1 μM: < 1%
[2]
  Mean% inhibition (N = 2) of radioligand binding: <1%
[3]
  Mean% inhibition (N = 2) of radioligand binding: <1%
[4]
  Mean% inhibition (N = 2) of radioligand binding: <1%
[5]
  Mean% inhibition (N = 2) of radioligand binding: <1%
[6]
  Mean% inhibition (N = 2) of radioligand binding: <5%
[7]
  Mean% inhibition (N = 2) of radioligand binding: <1%
[8]
  Mean% inhibition (N = 2) of radioligand binding: 19%
[9]
  half-life at 1 μM: > 300 min
[10]
  half-life at 1 μM: > 300 min
